Laboratory results published in ChEMBL document CHEMBL4507286 (2021).

Tests used:
[1] = molecular target: Tyrosine-protein kinase SYK (Homo sapiens) (UniProt P43405)
[2] = molecular target: Cyclin-dependent kinase 4 (Homo sapiens) (UniProt P11802)
[3] = system: Mast/stem cell growth factor receptor Kit (Homo sapiens), P10721 [V559D,V654A]
[4] = molecular target: Serine/threonine-protein kinase MARK1 (Homo sapiens) (UniProt Q9P0L2)
[5] = molecular target: Tyrosine-protein kinase JAK3 (Homo sapiens) (UniProt P52333)
[6] = molecular target: Dual specificity tyrosine-phosphorylation-regulated kinase 1B (Homo sapiens) (UniProt Q9Y463)
[7] = system: Phosphatidylinositol 4,5-bisphosphate 3-kinase catalytic subunit alpha isoform (Homo sapiens), P42336 [I800L]
[8] = system: Receptor-type tyrosine-protein kinase FLT3 (Homo sapiens), P36888 [UNDEFINED MUTATION]
[9] = system: Tyrosine-protein kinase ABL1 (Homo sapiens), P00519 [T315I]
[10] = molecular target: Serine/threonine-protein kinase SIK3 (Homo sapiens) (UniProt Q9Y2K2)
[11] = molecular target: LIM domain kinase 1 (Homo sapiens) (UniProt P53667)
[12] = molecular target: Leukocyte tyrosine kinase receptor (Homo sapiens) (UniProt P29376)
[13] = molecular target: Serine/threonine-protein kinase Sgk2 (Homo sapiens) (UniProt Q9HBY8)
[14] = molecular target: Inhibitor of nuclear factor kappa-B kinase subunit alpha (Homo sapiens) (UniProt O15111)
[15] = molecular target: Serine/threonine-protein kinase pim-3 (Homo sapiens) (UniProt Q86V86)
[16] = molecular target: Vascular endothelial growth factor receptor 2 (Homo sapiens) (UniProt P35968)
[17] = molecular target: G protein-coupled receptor kinase 3 (Homo sapiens) (UniProt P35626)
[18] = molecular target: Uncharacterized serine/threonine-protein kinase SBK3 (Homo sapiens) (UniProt P0C264)
[19] = molecular target: Leucine-rich repeat serine/threonine-protein kinase 2 (Homo sapiens) (UniProt Q5S007)
[20] = molecular target: Myosin-IIIa (Homo sapiens) (UniProt Q8NEV4)
[21] = molecular target: Serine/threonine-protein kinase TBK1 (Homo sapiens) (UniProt Q9UHD2)
[22] = molecular target: Mitogen-activated protein kinase kinase kinase kinase 4 (Homo sapiens) (UniProt O95819)
[23] = molecular target: Dual specificity mitogen-activated protein kinase kinase 4 (Homo sapiens) (UniProt P45985)
[24] = molecular target: 5-hydroxytryptamine receptor 1D (Homo sapiens) (UniProt P28221); details: Compound concentration 10.0 uM
[25] = molecular target: Ephrin type-B receptor 1 (Homo sapiens) (UniProt P54762)
[26] = molecular target: Cyclin-dependent kinase 11A (Homo sapiens) (UniProt Q9UQ88)
[27] = molecular target: Mitogen-activated protein kinase kinase kinase 9 (Homo sapiens) (UniProt P80192)
[28] = molecular target: Serine/threonine-protein kinase 16 (Homo sapiens) (UniProt O75716)
[29] = molecular target: Proto-oncogene tyrosine-protein kinase ROS (Homo sapiens) (UniProt P08922)
[30] = molecular target: Serine/threonine-protein kinase 32A (Homo sapiens) (UniProt Q8WU08)
[31] = molecular target: Ribosomal protein S6 kinase alpha-1 (Homo sapiens) (UniProt Q15418)
[32] = molecular target: Serine/threonine-protein kinase tousled-like 1 (Homo sapiens) (UniProt Q9UKI8)
[33] = molecular target: Serine/threonine-protein kinase 38-like (Homo sapiens) (UniProt Q9Y2H1)
[34] = molecular target: Macrophage colony-stimulating factor 1 receptor (Homo sapiens) (UniProt P07333)
[35] = molecular target: 5-hydroxytryptamine receptor 2A (Homo sapiens) (UniProt P28223); details: Compound concentration 10.0 uM
[36] = molecular target: Microtubule-associated serine/threonine-protein kinase 1 (Homo sapiens) (UniProt Q9Y2H9)
[37] = molecular target: Dual specificity protein kinase CLK2 (Homo sapiens, UniProt P49760)
[38] = molecular target: Cyclin-G-associated kinase (Homo sapiens) (UniProt O14976)
[39] = molecular target: Ephrin type-A receptor 6 (Homo sapiens) (UniProt Q9UF33)
[40] = molecular target: Serine/threonine-protein kinase ULK3 (Homo sapiens) (UniProt Q6PHR2)
[41] = molecular target: Casein kinase I isoform alpha-like (Homo sapiens) (UniProt Q8N752)
[42] = molecular target: Serine/threonine-protein kinase RIO3 (Homo sapiens) (UniProt O14730)
[43] = molecular target: Phosphatidylinositol 4,5-bisphosphate 3-kinase catalytic subunit gamma isoform (Homo sapiens) (UniProt P48736)
[44] = molecular target: Serine/threonine-protein kinase Nek1 (Homo sapiens) (UniProt Q96PY6)
[45] = molecular target: Ephrin type-A receptor 7 (Homo sapiens) (UniProt Q15375)
[46] = Compound concentration 1000.0 nM
[47] = Compound concentration 100.0 nM

Sequence of Serine/threonine-protein kinase SIK3 (Homo sapiens) (Q9Y2K2 whole entry, looked up, the tested form may be a part): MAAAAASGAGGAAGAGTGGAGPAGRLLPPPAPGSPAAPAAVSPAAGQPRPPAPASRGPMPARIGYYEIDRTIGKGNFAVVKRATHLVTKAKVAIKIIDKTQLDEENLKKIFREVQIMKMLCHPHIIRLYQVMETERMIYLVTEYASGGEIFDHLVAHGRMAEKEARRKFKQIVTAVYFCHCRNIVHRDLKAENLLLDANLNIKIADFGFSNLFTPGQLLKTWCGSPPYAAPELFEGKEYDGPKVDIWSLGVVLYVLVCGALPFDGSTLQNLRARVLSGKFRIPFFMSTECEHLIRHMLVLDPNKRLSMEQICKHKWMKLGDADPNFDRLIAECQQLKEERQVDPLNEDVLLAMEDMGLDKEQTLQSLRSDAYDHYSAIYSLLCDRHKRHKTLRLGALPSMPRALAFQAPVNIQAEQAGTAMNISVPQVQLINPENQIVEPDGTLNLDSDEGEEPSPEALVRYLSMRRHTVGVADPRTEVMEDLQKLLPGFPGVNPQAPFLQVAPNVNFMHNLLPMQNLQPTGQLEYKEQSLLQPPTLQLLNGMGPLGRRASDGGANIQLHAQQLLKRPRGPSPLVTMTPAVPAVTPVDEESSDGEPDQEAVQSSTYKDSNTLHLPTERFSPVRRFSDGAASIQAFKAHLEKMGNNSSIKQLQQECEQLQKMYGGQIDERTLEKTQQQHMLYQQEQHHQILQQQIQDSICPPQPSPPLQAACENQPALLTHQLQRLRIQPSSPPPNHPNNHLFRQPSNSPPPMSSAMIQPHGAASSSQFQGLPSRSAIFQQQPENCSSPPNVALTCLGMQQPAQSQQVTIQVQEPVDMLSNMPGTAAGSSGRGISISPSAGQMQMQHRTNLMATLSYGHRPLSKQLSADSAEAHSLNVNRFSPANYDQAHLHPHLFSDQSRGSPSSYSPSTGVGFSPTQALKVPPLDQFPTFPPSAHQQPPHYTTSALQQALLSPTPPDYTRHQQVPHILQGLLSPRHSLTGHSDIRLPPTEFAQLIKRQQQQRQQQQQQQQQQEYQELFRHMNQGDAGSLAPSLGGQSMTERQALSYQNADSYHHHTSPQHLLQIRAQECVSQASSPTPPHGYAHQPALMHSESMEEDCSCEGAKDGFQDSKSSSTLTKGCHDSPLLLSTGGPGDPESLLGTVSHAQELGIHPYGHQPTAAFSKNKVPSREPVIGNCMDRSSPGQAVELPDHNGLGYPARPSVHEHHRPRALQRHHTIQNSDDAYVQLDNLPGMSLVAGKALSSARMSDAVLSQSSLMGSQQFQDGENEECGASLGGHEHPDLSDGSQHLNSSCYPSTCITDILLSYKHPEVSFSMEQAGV
Sequence of Mitogen-activated protein kinase kinase kinase kinase 4 (Homo sapiens) (O95819 2-1239 limits assumed): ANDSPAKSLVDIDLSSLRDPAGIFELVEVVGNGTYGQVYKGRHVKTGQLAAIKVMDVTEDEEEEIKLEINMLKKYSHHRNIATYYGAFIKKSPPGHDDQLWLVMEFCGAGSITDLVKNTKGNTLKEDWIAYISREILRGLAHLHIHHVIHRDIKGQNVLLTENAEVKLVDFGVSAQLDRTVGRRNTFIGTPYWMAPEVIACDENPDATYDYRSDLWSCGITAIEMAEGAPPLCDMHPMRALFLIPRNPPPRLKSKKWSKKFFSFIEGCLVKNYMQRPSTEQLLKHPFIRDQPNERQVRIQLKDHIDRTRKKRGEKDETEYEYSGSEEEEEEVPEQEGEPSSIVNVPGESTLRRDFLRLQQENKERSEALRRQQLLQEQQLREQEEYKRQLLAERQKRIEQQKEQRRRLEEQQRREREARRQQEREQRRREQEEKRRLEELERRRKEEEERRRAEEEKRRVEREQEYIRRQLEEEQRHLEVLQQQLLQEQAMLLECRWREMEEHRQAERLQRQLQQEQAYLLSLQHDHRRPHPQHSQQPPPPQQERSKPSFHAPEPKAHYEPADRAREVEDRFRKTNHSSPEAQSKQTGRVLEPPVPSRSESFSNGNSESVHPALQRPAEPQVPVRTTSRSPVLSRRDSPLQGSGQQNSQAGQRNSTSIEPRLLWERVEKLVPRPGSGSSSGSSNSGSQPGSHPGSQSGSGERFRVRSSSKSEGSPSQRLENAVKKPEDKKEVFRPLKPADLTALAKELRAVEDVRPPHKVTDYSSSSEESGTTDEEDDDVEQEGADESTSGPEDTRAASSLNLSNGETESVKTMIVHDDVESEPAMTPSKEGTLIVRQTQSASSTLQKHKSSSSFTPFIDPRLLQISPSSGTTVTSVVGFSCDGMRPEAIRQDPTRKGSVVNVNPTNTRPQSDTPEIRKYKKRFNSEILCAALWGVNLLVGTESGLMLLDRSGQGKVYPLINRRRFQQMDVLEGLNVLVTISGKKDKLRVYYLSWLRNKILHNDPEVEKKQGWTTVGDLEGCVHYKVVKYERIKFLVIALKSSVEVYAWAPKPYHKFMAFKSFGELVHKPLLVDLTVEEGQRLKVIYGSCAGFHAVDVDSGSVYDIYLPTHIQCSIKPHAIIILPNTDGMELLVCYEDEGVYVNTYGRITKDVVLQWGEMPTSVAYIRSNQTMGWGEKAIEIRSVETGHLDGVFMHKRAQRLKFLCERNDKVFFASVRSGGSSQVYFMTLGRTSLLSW
Sequence of Serine/threonine-protein kinase 38-like (Homo sapiens) (Q9Y2H1 2-464 limits assumed): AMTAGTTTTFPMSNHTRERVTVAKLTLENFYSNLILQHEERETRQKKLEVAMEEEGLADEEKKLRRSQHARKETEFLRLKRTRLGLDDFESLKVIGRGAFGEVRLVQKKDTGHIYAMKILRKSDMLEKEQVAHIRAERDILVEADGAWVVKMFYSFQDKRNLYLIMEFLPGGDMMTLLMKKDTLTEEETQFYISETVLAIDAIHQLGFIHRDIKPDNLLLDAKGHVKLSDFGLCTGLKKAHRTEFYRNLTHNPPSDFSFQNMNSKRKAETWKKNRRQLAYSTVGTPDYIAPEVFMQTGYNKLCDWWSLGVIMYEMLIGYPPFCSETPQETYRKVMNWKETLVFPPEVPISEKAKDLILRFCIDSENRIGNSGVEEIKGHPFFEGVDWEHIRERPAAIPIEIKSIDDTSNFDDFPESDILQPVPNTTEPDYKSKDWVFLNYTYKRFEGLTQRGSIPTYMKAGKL
Sequence of Serine/threonine-protein kinase ULK3 (Homo sapiens) (Q6PHR2 whole entry, canonical isoform): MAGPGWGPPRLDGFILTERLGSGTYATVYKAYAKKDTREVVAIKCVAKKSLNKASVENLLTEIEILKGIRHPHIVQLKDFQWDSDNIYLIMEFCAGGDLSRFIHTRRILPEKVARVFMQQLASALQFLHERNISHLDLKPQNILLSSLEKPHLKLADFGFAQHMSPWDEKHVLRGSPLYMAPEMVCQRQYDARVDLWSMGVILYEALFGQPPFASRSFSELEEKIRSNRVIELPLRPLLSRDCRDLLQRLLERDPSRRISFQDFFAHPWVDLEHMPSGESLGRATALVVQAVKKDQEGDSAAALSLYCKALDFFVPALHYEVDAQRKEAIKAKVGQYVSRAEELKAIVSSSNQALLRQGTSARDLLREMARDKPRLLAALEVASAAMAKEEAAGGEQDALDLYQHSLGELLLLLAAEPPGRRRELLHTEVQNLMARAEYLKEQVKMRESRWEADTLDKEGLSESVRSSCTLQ
Sequence of Vascular endothelial growth factor receptor 2 (Homo sapiens) (P35968 whole entry): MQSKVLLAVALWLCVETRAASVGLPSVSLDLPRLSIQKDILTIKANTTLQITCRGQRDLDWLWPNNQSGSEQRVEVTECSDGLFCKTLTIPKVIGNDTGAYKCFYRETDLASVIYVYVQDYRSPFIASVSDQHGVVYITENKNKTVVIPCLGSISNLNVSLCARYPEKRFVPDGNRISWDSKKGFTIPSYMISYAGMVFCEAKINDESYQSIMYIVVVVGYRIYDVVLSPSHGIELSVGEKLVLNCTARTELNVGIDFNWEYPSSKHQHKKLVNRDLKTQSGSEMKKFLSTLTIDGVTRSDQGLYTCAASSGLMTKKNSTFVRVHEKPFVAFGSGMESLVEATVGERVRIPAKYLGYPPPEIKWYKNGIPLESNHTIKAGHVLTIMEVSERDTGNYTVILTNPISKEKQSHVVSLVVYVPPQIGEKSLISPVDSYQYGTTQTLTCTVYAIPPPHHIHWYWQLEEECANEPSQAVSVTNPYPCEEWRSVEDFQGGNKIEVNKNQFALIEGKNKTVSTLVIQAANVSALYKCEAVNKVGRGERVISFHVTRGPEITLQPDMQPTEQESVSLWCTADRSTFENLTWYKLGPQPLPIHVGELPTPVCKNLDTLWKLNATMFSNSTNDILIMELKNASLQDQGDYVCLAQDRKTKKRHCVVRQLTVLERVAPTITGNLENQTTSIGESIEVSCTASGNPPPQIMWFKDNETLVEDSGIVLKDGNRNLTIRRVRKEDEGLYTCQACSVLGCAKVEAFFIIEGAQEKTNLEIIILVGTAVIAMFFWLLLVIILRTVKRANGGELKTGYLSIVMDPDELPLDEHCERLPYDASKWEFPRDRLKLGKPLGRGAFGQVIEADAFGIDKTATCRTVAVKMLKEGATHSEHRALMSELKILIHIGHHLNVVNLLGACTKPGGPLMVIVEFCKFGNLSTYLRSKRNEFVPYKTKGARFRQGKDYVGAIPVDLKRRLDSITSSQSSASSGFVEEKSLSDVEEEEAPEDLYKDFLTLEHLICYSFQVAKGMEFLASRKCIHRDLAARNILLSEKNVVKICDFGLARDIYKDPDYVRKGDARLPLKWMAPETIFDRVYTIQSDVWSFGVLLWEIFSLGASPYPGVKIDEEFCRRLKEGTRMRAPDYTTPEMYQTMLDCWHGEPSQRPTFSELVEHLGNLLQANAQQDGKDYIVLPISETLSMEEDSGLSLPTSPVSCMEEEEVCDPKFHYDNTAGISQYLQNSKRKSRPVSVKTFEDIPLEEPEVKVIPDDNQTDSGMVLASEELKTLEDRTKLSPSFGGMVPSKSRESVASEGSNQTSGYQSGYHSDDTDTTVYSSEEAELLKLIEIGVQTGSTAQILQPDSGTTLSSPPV

## C[C@H](NC(=O)Nc1cc2[nH]ncc2c(CO)n1)c1ccccn1 [ERKi-NC]
[1]; [46]
  residual activity: 100%
[2]; [46]
  residual activity: 89.8%
[3]; [46]
  residual activity: 100%
[4]; [46]
  residual activity: 78.7%
[5]; [46]
  residual activity: 100%
[6]; [46]
  residual activity: 57.6%
[7]; [46]
  residual activity: 99.5%
[8]; [46]
  residual activity: 100%
[9]; [46]
  residual activity: 100%
[10]; [46]
  residual activity: 100%
[11]; [46]
  residual activity: 100%
[12]; [46]
  residual activity: 100%
[13]; [46]
  residual activity: 100%
[14]; [46]
  residual activity: 100%
[15]; [46]
  residual activity: 100%
[16]; [46]
  residual activity: 100%
[17]; [46]
  residual activity: 88.7%
[18]; [46]
  residual activity: 100%
[19]; [46]
  residual activity: 71.3%
[20]; [46]
  residual activity: 100%
[21]; [46]
  residual activity: 48.3%
[22]; [46]
  residual activity: 100%
[23]; [46]
  residual activity: 88.9%
[24]
  inhibition: 39.9%
[25]; [46]
  residual activity: 100%
[26]; [46]
  residual activity: 95.4%
[27]; [46]
  residual activity: 100%
[28]; [46]
  residual activity: 100%
[29]; [46]
  residual activity: 85%
[30]; [46]
  residual activity: 100%
[31]; [46]
  residual activity: 100%
[32]; [46]
  residual activity: 100%
[33]; [46]
  residual activity: 100%
[34]; [46]
  residual activity: 94.8%
[35]
  inhibition: 7.64%
[36]; [46]
  residual activity: 100%
[37]; [46]
  residual activity: 100%
[38]; [46]
  residual activity: 100%
[39]; [46]
  residual activity: 89%
[40]; [46]
  residual activity: 98.9%
[41]; [46]
  residual activity: 100%
[42]; [46]
  residual activity: 90.7%
[43]; [46]
  residual activity: 100%
[44]; [46]
  residual activity: 100%
[45]; [46]
  residual activity: 97.3%

## C[C@@H](NC(=O)Nc1cc2[nH]ncc2c(CO)n1)c1ccccc1 [ERKi]
[1]; [47]
  residual activity: 100%
[2]; [47]
  residual activity: 100%
[3]; [47]
  residual activity: 96.6%
[4]; [47]
  residual activity: 97%
[5]; [47]
  residual activity: 64.5%
[6]; [47]
  residual activity: 95.9%
[7]; [47]
  residual activity: 66%
[8]; [47]
  residual activity: 100%
[9]; [47]
  residual activity: 100%
[10]; [47]
  residual activity: 79.6%
[11]; [47]
  residual activity: 94.1%
[12]; [47]
  residual activity: 98.5%
[13]; [47]
  residual activity: 66.7%
[14]; [47]
  residual activity: 100%
[15]; [47]
  residual activity: 82.9%
[16]; [47]
  residual activity: 100%
[17]; [47]
  residual activity: 60.8%
[18]; [47]
  residual activity: 100%
[19]; [47]
  residual activity: 94.6%
[20]; [47]
  residual activity: 100%
[21]; [47]
  residual activity: 84.8%
[22]; [47]
  residual activity: 88.5%
[23]; [47]
  residual activity: 89.2%
[24]
  inhibition: 1.59%
[25]; [47]
  residual activity: 91.1%
[26]; [47]
  residual activity: 100%
[27]; [47]
  residual activity: 95.7%
[28]; [47]
  residual activity: 60.3%
[29]; [47]
  residual activity: 100%
[30]; [47]
  residual activity: 100%
[31]; [47]
  residual activity: 100%
[32]; [47]
  residual activity: 80.3%
[33]; [47]
  residual activity: 72.7%
[34]; [47]
  residual activity: 87.3%
[35]
  inhibition: 7.44%
[36]; [47]
  residual activity: 93.9%
[37]; [47]
  residual activity: 68.5%
[38]; [47]
  residual activity: 100%
[39]; [47]
  residual activity: 100%
[40]; [47]
  residual activity: 68.1%
[41]; [47]
  residual activity: 79.8%
[42]; [47]
  residual activity: 100%
[43]; [47]
  residual activity: 96.4%
[44]; [47]
  residual activity: 74.1%
[45]; [47]
  residual activity: 91.1%
